The subject of this data set is rodent carcinogenicity bioassays, tumor incidence. The data set is described as follows: CCRIS carcinogenicity studies. Put shortly:
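Archive of carcinogenicity, mutagenicity, tumor promotion and tumor inhibition results drawn from journals, NCI reports and other sources, expert-reviewed; covers 1985-2011 and is no longer updated.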

The source made the active and inactive calls. How the calls were made is not given here.

Experimental findings from PubChem BioAssay AID1259411 (Chemical Carcinogenesis Research Information System (CCRIS), 2018) are described below.

`CN1[C@@H]2CC(OC(=O)[C@H](CO)c3ccccc3)C[C@H]1[C@@H]1O[C@@H]12` (some centres not stated): the carcinogen call was “inactive; negative” (Species: MOUSE, Strain/Sex: B6C3F1/FEMALE, Route: GAVAGE, Dose: 0, 1, 5, 25 MG/KG IN DISTILLED WATER FOR 104-105 WK (STUDY DURATION: 105 WK), Dose: 0, 1, 5, 25 MG/KG IN DISTILLED WATER FOR 104-105 WK (STUDY DURATION: 105 WK)); “inactive; negative” (Species: MOUSE, Strain/Sex: B6C3F1/FEMALE, Route: GAVAGE, Dose: 0, 25 MG/KG IN WATER 5 D/WK FOR 104 WK, CONTROL AND DOSED GROUPS FED AD LIBITUM (STUDY DURATION: 104 WK)); “inactive; negative” (Species: MOUSE, Strain/Sex: B6C3F1/FEMALE, Route: GAVAGE, Dose: 0, 25 MG/KG IN WATER 5 D/WK FOR 104 WK, CONTROL GROUP DIET RESTRICTED TO LIMIT WEIGHTS TO 85% OF AD LIBITUM-FED GROUP (S); “inactive; negative” (Species: MOUSE, Strain/Sex: B6C3F1/FEMALE, Route: GAVAGE, Dose: 0, 25 MG/KG IN WATER 5 D/WK FOR 104 WK, CONTROL GROUP WAS WEIGHT-MATCHED TO DOSED GROUP (STUDY DURATION: 104 WK)); “inactive; negative” (Species: MOUSE, Strain/Sex: B6C3F1/FEMALE, Route: GAVAGE, Dose: 0, 25 MG/KG IN WATER 5 D/WK FOR 157 WK, CONTROL GROUP DIET RESTRICTED TO LIMIT WEIGHTS TO 85% OF AD LIBITUM-FED GROUPS (); “inactive; negative” (Species: MOUSE, Strain/Sex: B6C3F1/MALE, Route: GAVAGE, Dose: 0, 1, 5, 25 MG/KG IN DISTILLED WATER FOR 104-105 WK (STUDY DURATION: 105 WK), Dose: 0, 1, 5, 25 MG/KG IN DISTILLED WATER FOR 104-105 WK (STUDY DURATION: 105 WK)). Further, the carcinogen call is, setting by setting: (Species: MOUSE, Strain/Sex: B6C3F1/MALE, Route: GAVAGE, Dose: 0, 25 MG/KG IN WATER 5 D/WK FOR 104 WK, CONTROL AND DOSED GROUPS FED AD LIBITUM (STUDY DURATION: 104 WK)) “inactive; negative”; (Species: MOUSE, Strain/Sex: B6C3F1/MALE, Route: GAVAGE, Dose: 0, 25 MG/KG IN WATER 5 D/WK FOR 104 WK, CONTROL GROUP DIET RESTRICTED TO LIMIT WEIGHTS TO 85% OF AD LIBITUM FED GROUP (S) “inactive; negative”; (Species: MOUSE, Strain/Sex: B6C3F1/MALE, Route: GAVAGE, Dose: 0, 25 MG/KG IN WATER 5 D/WK FOR 104 WK, CONTROL GROUP WAS WEIGHT-MATCHED TO DOSED GROUP (STUDY DURATION: 104 WK)) “inactive; negative”; (Species: MOUSE, Strain/Sex: B6C3F1/MALE, Route: GAVAGE, Dose: 0, 25 MG/KG IN WATER 5 D/WK FOR 157 WK, CONTROL GROUP DIET RESTRICTED TO LIMIT WEIGHTS TO 85% OF AD LIBITUM-FED GROUPS () “inactive; negative”; (Species: RAT, Strain/Sex: F344/FEMALE, Route: GAVAGE, Dose: 1, 5, 25 MG/KG IN DISTILLED WATER FOR 104 WK (STUDY DURATION: 104 WK), Dose: 1, 5, 25 MG/KG IN DISTILLED WATER FOR 104 WK (STUDY DURATION: 104 WK)) “inactive; negative”; (Species: RAT, Strain/Sex: F344/MALE, Route: GAVAGE, Dose: 0, 1, 5, 25 MG/KG IN DISTILLED WATER FOR 104 WK (STUDY DURATION: 104 WK), Dose: 0, 1, 5, 25 MG/KG IN DISTILLED WATER FOR 104 WK (STUDY DURATION: 104 WK)) “inactive; negative”.

Consider `c1ccc2c(c1)cc1c3ccccc3c3cccc4ccc2c1c43`, for which the carcinogen call runs as follows: (Species: MOUSE, Route: DERMAL, Tumor Site: Type of Lesion: INTEGUMENTARY SYSTEM (SKIN)) “active; positive”; (Species: MOUSE, Route: SUBCUTANEOUS, Tumor Site: Type of Lesion: INJECTION SITE) “active; positive”.

Consider `O=[N+]([O-])c1ccc2ccc3c([N+](=O)[O-])c4ccccc4c4ccc1c2c34`, for which the carcinogen call by setting is: (Species: RAT, Strain/Sex: F344/MALE, Route: SUBCUTANEOUS IMPLANT, Dose: 0, 8, 40, 200, 1000 UG IN 50 µL BEESWAX/TRICAPRYLIN IMPLANTED FOR UP TO 45 WK (STUDY DURATION: 45 WK), Dose: 0, 8, 40, 200, 1000 UG IN 50 µL BEESWAX/TRICAPRYLIN IMPLANTED FOR UP TO 45 WK (STUDY DURATION: 45 WK)) “inactive; negative”; (Species: RAT, Strain/Sex: F344/MALE, Route: SUBCUTANEOUS, Dose: 0, 8, 40, 200, 1000 UG SUSPENDED IN BEESWAX/TRICAPRYLIN (1:1) ONCE, Dose: 0, 8, 40, 200, 1000 UG SUSPENDED IN BEESWAX/TRICAPRYLIN (1:1) ONCE) “inactive; negative”.

For the compound `Cc1ccc(N)cc1N`, the carcinogen call (Species: MOUSE, Strain/Sex: B6C3F1/FEMALE, Route: ORAL, Dose: 0, 100, 200 PPM IN DIET FOR 101 WK, Dose: 0, 100, 200 PPM IN DIET FOR 101 WK, Tumor Site: Type of Lesion: HEMATOPOIETIC SYSTEM (LEUKEMIA), LYMPHATIC SYSTEM: LYMPHOMA, LIVER: HEPATOCELLULAR CARCINOMA, Tumor Site: Type of Lesion: HEMATOPOIETIC SYSTEM (LEUKEMIA), LYMPHATIC SYSTEM: LYMPHOMA, LIVER: HEPATOCELLULAR CARCINOMA) was “active; positive”; the carcinogen call (Species: MOUSE, Strain/Sex: B6C3F1/MALE, Route: ORAL, Dose: 0, 100, 200 PPM IN DIET FOR 101 WK, Dose: 0, 100, 200 PPM IN DIET FOR 101 WK) was “inactive; negative”; the carcinogen call (Species: RAT, Strain/Sex: F344/FEMALE, Route: ORAL, Dose: 0, 79, 171 PPM TWA, IN DIET FOR 84-103 WK, Dose: 0, 79, 171 PPM TWA, IN DIET FOR 84-103 WK, Tumor Site: Type of Lesion: INTEGUMENTARY SYSTEM (SUBCUTANEOUS TISSUE): FIBROMA, FIBROSARCOMA, LIVER: HEPATOCELLULAR CARCINOMA OR NEOPLASTIC NODULE;, Tumor Site: Type of Lesion: INTEGUMENTARY SYSTEM (SUBCUTANEOUS TISSUE): FIBROMA, FIBROSARCOMA, LIVER: HEPATOCELLULAR CARCINOMA OR NEOPLASTIC NODULE) is “active; positive”; the carcinogen call (Species: RAT, Strain/Sex: F344/MALE, Route: ORAL, Dose: 0, 79, 176 PPM TWA, IN DIET FOR 79-103 WK, Dose: 0, 79, 176 PPM TWA, IN DIET FOR 79-103 WK, Tumor Site: Type of Lesion: INTEGUMENTARY SYSTEM (SUBCUTANEOUS TISSUE): SQUAMOUS CELL CARCINOMA, FIBROMA, LIPOMA, LIVER: HEPATOCELLULAR CARCINOMA OR) is “active; positive”.

Turning to `CCCCCCOc1cc2c(c3ccc4ccccc4c13)CCC2=O`, the carcinogen call (Species: MOUSE, Strain/Sex: TO/MALE, FEMALE, Route: DERMAL, Dose: 0, 50 UG (10 µL OF A 0.5% W/V TOLUENE SOLUTION) 2/WK FOR 70 WK (STUDY DURATION: 70 WK)) was “inactive; negative”.

As to `ClC(Cl)C(Cl)Cl`, the carcinogen call is “active; positive” (Species: MOUSE, Strain/Sex: B6C3F1/FEMALE, Route: GAVAGE, Dose: 0, 142, 282 MG/KG N CORN OIL 5 D/WK FOR 78 WK (STUDY DURATION: 90 WK), Dose: 0, 142, 282 MG/KG N CORN OIL 5 D/WK FOR 78 WK (STUDY DURATION: 90 WK), Tumor Site: Type of Lesion: LIVER: HEPATOCELLULAR CARCINOMA); “active; positive” (Species: MOUSE, Strain/Sex: B6C3F1/MALE, Route: GAVAGE, Dose: 0, 142, 282 MG/KG IN CORN OIL 5 D/WK FOR 78 WK (STUDY DURATION: 90 WK), Dose: 0, 142, 282 MG/KG IN CORN OIL 5 D/WK FOR 78 WK (STUDY DURATION: 90 WK), Tumor Site: Type of Lesion: LIVER: HEPATOCELLULAR CARCINOMA); “inactive; negative” (Species: RAT, Strain/Sex: OSBORNE-MENDEL/FEMALE, Route: GAVAGE, Dose: 0, 43, 76 MG/KG IN CORN OIL 5 D/WK FOR 78 WK (STUDY DURATION: 110 WK), Dose: 0, 43, 76 MG/KG IN CORN OIL 5 D/WK FOR 78 WK (STUDY DURATION: 110 WK)); “equivocal” (Species: RAT, Strain/Sex: OSBORNE-MENDEL/MALE, Route: GAVAGE, Dose: 0, 62, 108 MG/KG IN CORN OIL 5 D/WK FOR 78 WK (STUDY DURATION: 110 WK), Dose: 0, 62, 108 MG/KG IN CORN OIL 5 D/WK FOR 78 WK (STUDY DURATION: 110 WK), Tumor Site: Type of Lesion: LIVER: NEOPLASTIC NODULE, HEPATOCELLULAR CARCINOMA).

For the compound `CNC(=O)Oc1ccccc1OC(C)C`, the carcinogen call is, setting by setting: (Species: MOUSE, Strain/Sex: SWISS/FEMALE, Route: DERMAL, Dose: 0, 100 MG/KG BW IN 100 µL ACETONE 3/WK FOR 52 WK (STUDY DURATION: 52 WK)) “inactive; negative”; (Species: MOUSE, Strain/Sex: SWISS/MALE, Route: DERMAL, Dose: 0, 100 MG/KG BW IN 100 µL ACETONE 3/WK FOR 52 WK (STUDY DURATION: 52 WK)) “inactive; negative”.
